According to patent US20060264419A1 (priority 2003, published 2006):

What follows are compounds tested against 5-HT2A receptors (Rattus norvegicus, UniProt P14842) (assay: in-vitro affinity to 5-HT2A receptors, displacement of [3H]ketanserine (Example A1)). Conditions: read-out: HT2A IC50.
5-HT2A receptors, sequence (P14842 whole entry): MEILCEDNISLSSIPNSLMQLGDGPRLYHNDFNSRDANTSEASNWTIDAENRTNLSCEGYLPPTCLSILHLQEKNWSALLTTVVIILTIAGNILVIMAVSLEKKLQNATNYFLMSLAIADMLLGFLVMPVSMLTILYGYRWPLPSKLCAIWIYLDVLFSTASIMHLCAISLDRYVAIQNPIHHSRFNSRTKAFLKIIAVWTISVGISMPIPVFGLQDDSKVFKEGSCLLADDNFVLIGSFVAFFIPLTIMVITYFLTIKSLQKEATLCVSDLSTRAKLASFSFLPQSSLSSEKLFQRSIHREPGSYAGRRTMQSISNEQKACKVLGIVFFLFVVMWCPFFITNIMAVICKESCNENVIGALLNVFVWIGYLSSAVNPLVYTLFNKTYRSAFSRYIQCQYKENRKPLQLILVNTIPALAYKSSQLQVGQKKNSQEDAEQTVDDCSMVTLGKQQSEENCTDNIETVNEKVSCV
Assay type: binding
Excerpt: The 5-HT2A receptors are exposed both to [^3H]ketanserine (a substance which is known for its affinity to the receptor) and also to the test compound. The decrease in the affinity of [^3H]ketanserine to the receptor is an indication of the affinity of the test substance to the 5-HT2A receptor.
For `O=C(CN1CCN(Cc2cnn(-c3ccc(-c4ccccc4)cc3)c2-c2ccccc2F)CC1)N1CCCC1` [Example 985, 2-{4-[1-Biphenyl-4-yl-5-(2-fluoro-phenyl)-1H-pyrazol-4-ylmethyl]piperazin-1-yl}-1-pyrrolidin-1-ylethanone], the IC50 was 122 nM. For `O=C(NCCO)C1CCN(Cc2cnn(-c3ccc(-c4ccccc4)cc3)c2-c2ccccc2F)CC1` [Example 1030, N-(2-Hydroxyethyl)-1-[1-biphenyl-4-yl-5-(2-fluorophenyl)-1H-pyrazol-4-ylmethyl]piperidine-4-carboxamide], the IC50 was 270 nM. `OC1CCN(Cc2cnn(-c3ccc(C(F)(F)F)cn3)c2-c2ccccc2F)C1` (stereo not drawn) [Example 1050, 1-[5-(2-Fluorophenyl)-1-(5-trifluoro-methylpyridin-2-yl)-1H-pyrazol-4-ylmethyl]pyrrolidin-3-ol] showed an IC50 of 390 nM. `CN1CCN(NCc2cnn(-c3ccc(-c4ccc(F)cc4)cc3)c2-c2ccccc2)CC1` [Example 974, [1-(4′-Fluorobiphenyl-4-yl)-5-phenyl-1H-pyrazol-4-ylmethyl]-(4-methyl-piperazin-1-yl)amine] showed an IC50 of 87 nM. Compound `COC(=O)CCNCc1cnn(-c2ccc(-c3ccccc3)cc2)c1-c1ccccc1F` [Example 1014, Methyl 3-{[1-biphenyl-4-yl-5-(2-fluoro-phenyl)-1H-pyrazol-4-ylmethyl]amino}propionate] has an IC50 of 210 nM. In the case of `Cc1cnc(NCc2cnn(-c3ccc(-c4ccccc4)cc3)c2-c2ccccc2F)s1` [Example 1046, [1-Biphenyl-4-yl-5-(2-fluorophenyl)-1H-pyrazol-4-ylmethyl]-(5-methylthiazol-2-yl)amine], the IC50 is reported as 370 nM. Compound `Fc1ccccc1-c1c(CNC2CCN(Cc3ccccc3)C2)cnn1-c1ccc(-c2ccccc2)cc1` (stereo not drawn) [Example 1036, (1-Benzylpyrrolidin-3-yl)-[1-biphenyl-4-yl-5-(2-fluorophenyl)-1H-pyrazol-4-ylmethyl]amine] has an IC50 of 310 nM. With `Fc1ccc(F)c(-c2ccc(-n3ncc(CNCC4CCCO4)c3-c3ccccc3F)cc2)c1` (stereo not drawn) [Example 1044, [1-(2′,5′-Difluorobiphenyl-4-yl)-5-(2-fluoro-phenyl)-1H-pyrazol-4-ylmethyl](tetrahydro-furan-2-ylmethyl)amine] the IC50 was 370 nM. `CC1CCN(Cc2cnn(-c3ccc(-c4ccccc4)cc3)c2-c2ccccc2F)CC1` [Example 986, 1-[1-Biphenyl-4-yl-5-(2-fluorophenyl)-1H-pyrazol-4-ylmethyl]-4-methylpiperidine] was tested, and the IC50 was 130 nM. `CN(C)C(=O)CNCc1cnn(-c2ccc(-c3ccccc3)cc2)c1-c1ccccc1F` [Example 1010, 2-{[1-Biphenyl-4-yl-5-(2-fluorophenyl)-1H-pyrazol-4-ylmethyl]amino}-N,N-dimethyl-acetamide] gave an IC50 of 200 nM.

Same assay, conditions: target not given; description names affinity to 5-HT2A receptors; read-out: IC50
`CN1CCN(Cc2cnn(-c3ccc(-c4ccncc4)cc3)c2-c2ccccc2F)CC1` [(121), 1-[5-(2-Fluorophenyl)-1-(4-pyridin-4-ylphenyl)-1H-pyrazol-4-ylmethyl]-4-methylpiperazine] showed an IC50 of 77 nM. In the case of `CN1CCN(Cc2cnn(-c3ccc(-n4cccc4)cc3)c2-c2ccccc2F)CC1` [(106), 1-[5-(2-Fluorophenyl)-1-(4-pyrrol-1-ylphenyl)-1H-pyrazol-4-ylmethyl]-4-methylpiperazine], the IC50 is reported as 17 nM. Compound `CN1CCCN(Cc2cnn(-c3ccc(-c4ccccc4)cc3)c2-c2ccccc2F)CC1` [(93), 1-[1-Biphenyl-4-yl-5-(2-fluorophenyl)-1H-pyrazol-4-ylmethyl]-4-methyl-[1,4]diazepam] has an IC50 of 6.4 nM. `CN1CCN(Cc2cnn(-c3ccc(OC(F)(F)F)cc3)c2-c2ccccc2F)CC1` [(115), 1-[5-(2-Fluorophenyl)-1-(4-trifluoromethoxyphenyl)-1H-pyrazol-4-ylmethyl]-4-methylpiperazine] was tested, and the IC50 was 270 nM. In the case of `CC(C)(C)OC(=O)N1CCN(Cc2cnn(-c3ccc(-c4ccccc4)cc3)c2-c2ccccn2)CC1` [(59), tert-Butyl 4-(1-biphenyl-4-yl-5-pyridin-2-yl-1H-pyrazol-4-ylmethyl)piperazine-1-carboxylate], the IC50 is reported as 780 nM. Compound `CN(C)C(=O)CNCc1cnn(-c2ccc(-c3ccccc3)cc2)c1-c1ccccc1F` [(128), 2-{[1-Biphenyl-4-yl-5-(2-fluorophenyl)-1H-pyrazol-4-ylmethyl]-amino}-N,N-dimethylacetamide] has an IC50 of 200 nM. `Fc1ccccc1-c1c(CN2CCN(Cc3ccsc3)CC2)cnn1-c1ccc(-c2ccccc2)cc1` [(135), 1-[1-Biphenyl-4-yl-5-(2-florophenyl)-1H-pyrazol-4-ylmethyl]-4-thiophen-3-ylmethylpiperazine] gave an IC50 of 380 nM. `COCCN(C)Cc1cnn(-c2ccc(-c3ccc(F)cc3)nc2)c1-c1ccccc1F` [(156), {5-(2-Fluorophenyl)-1-[6-(4-fluorophenyl)pyridin-3-yl]-1H-pyrazol-4-ylmethyl}-(2-methoxyethyl)methylamine] showed an IC50 of 300 nM. `CN1CCN(Cc2cnn(-c3ccc(-c4ccccc4)cc3)c2-c2ccccc2F)CC1` [(41), 1-[1-Biphenyl-4-yl-5-(2-fluorophenyl)-1H-pyrazol-4-ylmethyl]-4-methylpiperazine] was tested, and the IC50 was 24 nM. `Fc1ccccc1-c1c(CCl)cnn1-c1ccc(-c2ccccc2)cc1` [(189), 1-Biphenyl-4-yl-4-chloromethyl-5-(2-fluorophenyl)-1H-pyrazole] gave an IC50 of 1100 nM. `CN(CC(N)=O)Cc1cnn(-c2ccc(-c3ccccc3)cc2)c1-c1ccccc1F` [(132), 2-{[1-Biphenyl-4-yl-5-(2-fluorophenyl)-1H-pyrazol-4-ylmethyl]-methylamino}acetamide] was tested, and the IC50 was 920 nM. Compound `OCC(Cc1cnc[nH]1)NCc1cnn(-c2ccc(-c3ccccc3)cc2)c1-c1ccccc1F` (stereo not drawn) [(137), 2-{[1-Biphenyl-4-yl-5-(2-fluorophenyl)-1H-pyrazol-4-ylmethyl]-amino}-3-(3H-imidazol-4-yl)propan-1-ol] has an IC50 of 370 nM. Compound `CCOC(=O)N1CCN(Cc2cnn(-c3ccc(-c4ccccc4)cc3)c2-c2ccccc2F)CC1` [(182), Ethyl 4-[1-biphenyl-4-yl-5-(2-fluorophenyl)-1H-pyrazol-4-ylmethyl]piperazine-1-carboxylate] has an IC50 of 58 nM. Compound `CN1CCN(Cc2cnn(-c3ccc(-c4ccccc4)cc3)c2C(F)(F)F)CC1` [(67)] has an IC50 of 260 nM. Compound `Fc1ccc(-c2ccc(-n3ncc(CN4CCOCC4)c3-c3ccccc3F)cc2)cc1` [(61), 4-[1-(4′-Fluorobiphenyl-4-yl)-5-(2-fluorophenyl)-1H-pyrazol-4-ylmethyl]morpholine] has an IC50 of 520 nM. For `CN(CC(=O)OC(C)(C)C)Cc1cnn(-c2ccc(-c3ccccc3)cc2)c1-c1cccnc1` [(180), tert-Butyl [(1-biphenyl-4-yl-5-pyridin-3-yl-1H-pyrazol-4-ylmethyl)methylamino]acetate], the IC50 was 920 nM. With `CC1CN(Cc2cnn(-c3ccc(-c4ccccc4)cc3)c2-c2ccccc2F)CC(C)N1` (stereo not drawn) [(95), 1-[1-Biphenyl-4-yl-5-(2-fluorophenyl)-1H-pyrazol-4-ylmethyl]-3,5-dimethylpiperazine] the IC50 was 100 nM. For `Cc1cnc(NCc2cnn(-c3ccc(-c4ccccc4)cc3)c2-c2ccccc2F)s1` [(178), [1-Biphenyl-4-yl-5-(2-fluorophenyl)-1H-pyrazol-4-ylmethyl]-(5-methylthiazol-2-yl)amine], the IC50 was 370 nM. Compound `OCCc1cnn(-c2ccc(-c3ccccc3)cc2)c1-c1ccccc1F` [(173), 2-[1-Biphenyl-4-yl-5-(2-fluorophenyl)-1H-pyrazol-4-yl]-ethanol] has an IC50 of 470 nM. With `CN(C)Cc1cnn(-c2ccc(-c3ccccc3)cc2)c1-c1ccccc1F` [(34), [1-Biphenyl-4-yl-5-(2-fluorophenyl)-1H-pyrazol-4-ylmethyl]-dimethylamine] the IC50 was 21 nM. Compound `O=C(NCCO)C1CCN(Cc2cnn(-c3ccc(-c4ccccc4)cc3)c2-c2ccccc2F)CC1` [(164), N-(2-Hydroxyethyl)-1-[1-biphenyl-4-yl-5-(2-fluorophenyl)-1H-pyrazol-4-ylmethyl]piperidine-4-carboxamide] has an IC50 of 270 nM. `CC(C)(C)OC(=O)CNCc1cnn(-c2ccc(-c3ccccc3)cc2)c1-c1cccnc1` [(179), tert-Butyl [(1-biphenyl-4-yl-5-pyridin-3-yl-1H-pyrazol-4-ylmethyl)amino]acetate] gave an IC50 of 1000 nM. Compound `COCCN(C)Cc1cnn(-c2ccc(-c3ccccc3F)nc2)c1-c1ccccc1F` [(157), {5-(2-Fluorophenyl)-1-[6-(2-fluorophenyl)pyridin-3-yl]-1H-pyrazol-4-ylmethyl}-(2-methoxyethyl)methylamine] has an IC50 of 2000 nM. `CN1CCN(C(=O)c2cnn(-c3ccc(-c4ccccc4)cc3)c2-c2ccccc2F)CC1` [(52), 1-[1-Biphenyl-4-yl-5-(2-fluorophenyl)-1H-pyrazol-4-yl]-1-(4-methylpiperazin-1-yl)methanone] gave an IC50 of 820 nM. `NCc1cnn(-c2ccc(-c3ccccc3)cc2)c1-c1ccccc1` [(165), C-(1-Biphenyl-4-yl-5-phenyl-1H-pyrazol-4-yl)methylamine] showed an IC50 of 21 nM. `O=c1ccccn1Cc1cnn(-c2ccc(-c3ccccc3)cc2)c1-c1ccccc1F` [(191), 1-[1-Biphenyl-4-yl-5-(2-fluorophenyl)-1H-pyrazol-4-ylmethyl]-1H-pyridin-2-one] gave an IC50 of 200 nM. In the case of `CN1CCN(Cc2cnn(-c3ccc(-c4ccc(F)cc4)cc3)c2-c2ccccc2F)CC1` [(64), 1-[1-(4′-Fluorobiphenyl-4-yl)-5-(2-fluorophenyl)-1H-pyrazol-4-ylmethyl]-4-methylpiperazine], the IC50 is reported as 7.8 nM. `CC(=O)NC1CCN(Cc2cnn(-c3ccc(-c4ccccc4)cc3)c2-c2ccccc2F)C1` (stereo not drawn) [(50), N-{1-[1-Biphenyl-4-yl-5-(2-fluorophenyl)-1H-pyrazol-4-ylmethyl]pyrrolidin-3-yl}acetamide] gave an IC50 of 29 nM. In the case of `Fc1ccccc1-c1c(CN2CCN3CCc4ccccc4C3C2)cnn1-c1ccc(-c2ccccc2)cc1` (stereo not drawn) [(27), 2-[1-Biphenyl-4-yl-5-(2-fluorophenyl)-1H-pyrazol-4-ylmethyl]-1,3,4,6,7,11b-hexahydro-2H-pyrazino[2,1-a]-isoquinoline], the IC50 is reported as 280 nM.
